Reference: patent US11084808B2, “Oxopicolinamide derivative, preparation method therefor and pharmaceutical use thereof” (Jiangsu Hengrui Medicine Co., Ltd., priority 2016, dated 2021)

What was measured:
[1] = Pharmacokinetics assay in rats after intragastrical administration; type: in vivo, Sprague-Dawley (SD) rats; conditions: intragastric, 2 mg/kg
Source text: Test Example 3. Pharmacokinetics Assay of the Compounds of the Present Invention
Rats were used as test animals. […] The pharmacokinetic behavior of the compounds of the present invention was studied and evaluated in rats.
56 healthy adult Sprague-Dawley (SD) rats, half male and half female, were purchased from SINO-BRITSH SIPPR/BK LAB. ANIMAL LTD., CO, with License No.: SCXK (Shanghai) 2008-0016.
2.3 Preparation of the Test Compounds
A certain amount of the test compound was weighed, and added with 5% by volume of DMSO, 5% by volume of Tween 80 and 90% normal saline to prepare a 0.2 mg/mL colorless, clear and transparent solution.
After an overnight fast, SD rats were intragastrically administered at a dose of 2.0 mg/kg and an administration volume of 10.0 mL/kg.
Example 111, Example 114, Example 160. Example 171 and Comparative Example 1. Blood (0.2 mL) was taken from the orbital sinus before administration and at 0.5, 1.0, 2.0, 4.0, 6.0, 8.0, 11.0 and 24.0 hours after administration. […]
The content of the test compound in the plasma of rats after intragastric administration of different concentrations of the drug was determined: 25 μL of rat plasma at each time after administration was taken and added with 30 μL (100 ng/mL) of the internal standard solution of camptothecin and 200 μL of acetonitrile, shaken vertically for 5 minutes, and centrifuged for 10 minutes (4000 rpm). […]

human blood = assay: In vitro anticoagulant effect on human blood (APTT, CT2); type: biochemical; conditions: for CT2 (compound concentration doubling APTT): human plasma
Experimental: Test Example 2: Determination of In Vitro Anticoagulant Effect of the Compounds of the Present Invention on Human Blood
1. Experimental Materials
Plasma: Human blood was collected in blood collection tubes containing no anticoagulant, and then 3.8% sodium citrate (volume ratio 1:9) was added. The tubes were centrifuged at 2500 rpm for 10 minutes at room temperature, and then the plasma was collected and stored at −80° C.:
Reagents: APTT reagent (Activated partial thromboplastin time assay kit, SIEMENS, Art. No. B4218-1), calcium chloride solution;
Instrument: Coagulation instrument (SYSMEX, CA-500).
The divided plasma was melted at room temperature and mixed well. 10000 μM the test compound dissolved in 100% DMSO was diluted to 3000, 300, 200, 150, 75, 30, 10, 3, 0.3 μM with 100% DMSO, and the blank was 100% DMSO. The reagent, plasma, and compound were placed in corresponding positions in the coagulation instrument, and APTT detection of the compound was carried out.
Curve fitting was carried out by graphpad and CT2 was calculated, i.e., the concentration of the compound corresponding to 2 times the APTT of the blank control.

[2] = Table 2, concentration of the compound corresponding to 2 times the APTT of the blank control

Row | Structure (SMILES) | CT2 (compound concentration doubling APTT) (human blood; [2]) [µM] | further results
1 | COc1cn([C@@H](Cc2cccnc2)C(=O)Nc2ccc(C(=O)O)cc2)c(=O)cc1-c1cc(Cl)ccc1C(C)=O [Example 84, (S)-4-(2-(4-(2-acetyl-5-chlorophenyl)-5-methoxy-2-oxopyridin-1(2H)-yl)-3-(pyridin-3-yl)propanamido)benzoic acid] |  | AUC difference versus Comparative Example 1 [1]: 7.5 times; Cmax difference versus Comparative Example 1 [1]: 6.9 times
2 | COc1cn(C(Cc2ccn(C)n2)C(=O)Nc2ccc(C(=O)O)cc2)c(=O)cc1-c1cc(Cl)ccc1C(C)=O (centres unmarked) [Example 100, 4-(2-(4-(2-acetyl-5-chlorophenyl)-5-methoxy-2-oxopyridin-(2H)-yl)-3-(1-methyl-1H-pyrazol-3-yl)propanamido)benzoic acid] | 3.3 | 
3 | COc1cn([C@H](Cc2cnn(C)c2)C(=O)Nc2ccc(C(=O)O)cc2)c(=O)cc1-c1cc(Cl)ccc1C(C)=O [Example 104, (R)-4-(2-(4-(2-acetyl-5-chlorophenyl)-5-methoxy-2-oxopyridin-1(2H)-yl)-3-(1-methyl-1H-pyrazol-4-yl)propanamido)benzoic acid] | >10000 | 
4 | COc1cn([C@@H](Cc2cnn(C)c2)C(=O)Nc2ccc(C(=O)O)cc2)c(=O)cc1-c1cc(Cl)ccc1C(C)=O [Example 105, (S)-4-(2-(4-(2-acetyl-5-chlorophenyl)-5-methoxy-2-oxopyridin-1(2H)-yl)-3-(1-methyl-1H-pyrazol-4-yl)propanamido)benzoic acid] | 6.9 | 
5 | CCC(=O)c1ccc(Cl)cc1-c1cc(=O)n([C@@H](CCOC(C)(C)C)C(=O)Nc2ccc(C(=O)O)cc2)cc1OC [Example 108, (S)-4-(4-(tert-butoxy)-2-(4-(5-chloro-2-propionylphenyl)-5-methoxy-2-oxopyridin-1(2H)-yl)butanamido)benzoic acid] | 1.4 | 
6 | CCC(=O)c1ccc(Cl)cc1-c1cc(=O)n([C@H](CCOC(C)(C)C)C(=O)Nc2ccc(C(=O)O)cc2)cc1OC [Example 109, (R)-4-(4-(tert-butoxy)-2-(4-(5-chloro-2-propionylphenyl)-5-methoxy-2-oxopyridin-1(2H)-yl)butanamido)benzoic acid] | >10000 | 
7 | COc1cn([C@@H](CCOC(C)(C)C)C(=O)Nc2ccc(C(=O)O)cc2)c(=O)cc1-c1cc(Cl)ccc1C(C)=O [Example 111, (S)-4-(2-(4-(2-acetyl-5-chlorophenyl)-5-methoxy-2-oxopyridin-1(2H)-yl)-4-(tert-butoxy)butanamido)benzoic acid] | 3.2 | 
8 | COc1cn([C@H](CCOC(C)(C)C)C(=O)Nc2ccc(C(=O)O)cc2)c(=O)cc1-c1cc(Cl)ccc1C(C)=O [Example 112, (R)-4-(2-(4-(2-acetyl-5-chlorophenyl)-5-methoxy-2-oxopyridin-(2H)-yl)-4-(tert-butoxy)butanamido)benzoic acid] | >10000 | 
9 | CCC(=O)c1ccc(Cl)cc1-c1cc(=O)n([C@@H](CCOC(C)(C)C)C(=O)Nc2ccc3nccnc3c2)cc1OC [Example 114, (S)-4-(tert-butoxy)-2-(4-(5-chloro-2-propionylphenyl)-5-methoxy-2-oxopyridin-1(2H)-yl)-N-(quinoxalin-6-yl)butanamide] | 3.6 | CT2 (compound concentration doubling APTT) (human blood; Table 3 comparison with similar compounds in the published patents): 2.9 µM; CT2 value ratio of Example 114 and comparative Example 2 (human blood; from Table 3): 4.5 times
10 | COc1cn([C@H](CC2CCC2)C(=O)Nc2ccc(C(=O)O)cc2)c(=O)cc1-c1c(C(C)=O)ccc(Cl)c1F [Example 160, (R)-4-(2-(4-(6-acetyl-3-chloro-2-fluorophenyl)-5-methoxy-2-oxopyridin-1(2H)-yl)-3-cyclobutylpropanamido)benzoic acid] | 3.8 | 
11 | COc1cn([C@H](CCOC2CCC2)C(=O)Nc2ccc(C(=O)O)cc2)c(=O)cc1-c1cc(Cl)ccc1C(C)=O [Example 163, (R)-4-(2-(4-(2-acetyl-5-chlorophenyl)-5-methoxy-2-oxopyridin-1(2H)-yl)-4-cyclobutoxybutanamido)benzoic acid] | >10000 | 
12 | COc1cn([C@@H](CCOC2CCC2)C(=O)Nc2ccc(C(=O)O)cc2)c(=O)cc1-c1cc(Cl)ccc1C(C)=O [Example 164, (S)-4-(2-(4-(2-acetyl-5-chlorophenyl)-5-methoxy-2-oxopyridin-1(2H)-yl)-4-cyclobutoxybutanamido)benzoic acid] | 6.4 | 
13 | CCC(=O)c1ccc(Cl)cc1-c1cc(=O)n(C(CC2CCCCO2)C(=O)Nc2ccc(C(=O)O)cc2)cc1OC (centres unmarked) [Example 166] | 7.2 | 
14 | [2H]C([2H])([2H])Oc1cn([C@@H](CCOC(C)(C)C)C(=O)Nc2ccc(C(=O)O)cc2)c(=O)cc1-c1cc(Cl)ccc1C(=O)CC [Example 177, 4-[[(2S)-4-tert-butoxy-2-[4-(5-chloro-2-propionyl-phenyl)-2-oxo-5-(trideuteromethoxy)-1-pyridyl]butyryl]amino]benzoic acid] | 1.5 | 
15 | [2H]C([2H])([2H])Oc1cn([C@H](CCOC(C)(C)C)C(=O)Nc2ccc(C(=O)O)cc2)c(=O)cc1-c1cc(Cl)ccc1C(=O)CC [Example 178, 4-[[(2R)-4-tert-butoxy-2-[4-(5-chloro-2-propionyl-phenyl)-2-oxo-5-(trideuteromethoxy)-1-pyridyl]butyryl]amino]benzoic acid] | >10000 | 
16 | [2H]C([2H])([2H])Oc1cn([C@@H](Cc2ccccc2)C(=O)Nc2ccc(C(=O)O)cc2)c(=O)cc1-c1cc(Cl)ccc1C(C)=O [Example 179, 4-[[(2S)-2-[4-(2-acetyl-5-chloro-phenyl)-2-oxo-5-(trideuteromethoxy)-1-pyridyl]-3-phenyl-propionyl]amino]benzoic acid] | 3.3 | 
17 | [2H]C([2H])([2H])Oc1cn([C@H](Cc2ccccc2)C(=O)Nc2ccc(C(=O)O)cc2)c(=O)cc1-c1cc(Cl)ccc1C(C)=O [Example 180, 4-[[(2R)-2-[4-(2-acetyl-5-chloro-phenyl)-2-oxo-5-(trideuteromethoxy)-1-pyridyl]-3-phenyl-propionyl]amino]benzoic acid] | >10000 | 
18 | [2H]c1c([2H])c([2H])c(C([2H])([2H])[C@@H](C(=O)Nc2ccc(C(=O)O)cc2)n2cc(OC)c(-c3cc(Cl)ccc3C(C)=O)cc2=O)c([2H])c1[2H] [Example 181, 4-[[(2S)-2-[4-(2-acetyl-5-chloro-phenyl)-5-methoxy-2-oxo-1-pyridyl]-3,3-dideutero-3-(2,3,4,5,6-pentadeuterophenyl)propionyl]amino]benzoic acid] | 2.3 | 
19 | [2H]C([2H])([2H])C(=O)c1ccc(Cl)cc1-c1cc(=O)n([C@@H](Cc2ccccc2)C(=O)Nc2ccc(C(=O)O)cc2)cc1OC [Example 183, 4-[[(2S)-2-[4-[5-chloro-2-(2,2,2-trideuteroacetyl)phenyl]-5-methoxy-2-oxo-1-pyridyl]-3-phenyl-propionyl]amino]benzoic acid] | 2.6 | 
20 | [2H]C([2H])([2H])C(=O)c1ccc(Cl)cc1-c1cc(=O)n([C@H](Cc2ccccc2)C(=O)Nc2ccc(C(=O)O)cc2)cc1OC [Example 184, 4-[[(2R)-2-[4-[5-chloro-2-(2,2,2-trideuteroacetyl)phenyl]-5-methoxy-2-oxo-1-pyridyl]-3-phenyl-propionyl]amino]benzoic acid] | >10000 | 
